Square brackets hold non-standard residues; d marks the D form. Peptide text beside a SMILES is read from it.
Experiments:
Proteinase K [1] = target: Proteinase K (Parengyodontium album, UniProt P06873); assay: in vitro; details: Proteinase K 5 μg/mL
Method: (§1) Degradation was monitored by HPLC. Solutions of individual coiled coils were prepared at 200 μM in 1× PBS and pH corrected to 7.40 ± 0.05 using 1–15 μL of 1 M NaOH. A stock solution of Proteinase K enzyme was prepared at 0.5 mg/mL. For each pair of peptides, 1.5 mL of each 200 μM solution was mixed, then 30 μL of 0.5 mg/mL Proteinase K was added to the 3 mL total mixed solution to obtain a final concentration of 5 μg/mL Proteinase K. Each degradation solution was stirred at 250 rpm for the duration of the experiment. For each time point, a 1 mL aliquot of degradation solution was added to an HPLC vial, a 100 μL injection was performed on HPLC, and the remaining 900 μL was returned to the bulk degradation solution. To normalize for slight shifts in elution time due to changing solvent or environmental conditions, a MATLAB script (included in SI) was used to align all K4^7 (for heptad degradation) or K3^11 (for hendecad degradation) peaks to the same elution time as the elution at t = 0 h.
(§2) Solutions of K4^7 and E4^7 (200 μM in 1× PBS at pH 7.4) were blended as homochiral (L-K4^7/L-E4^7) or heterochiral (D-K4^7/L-E4^7) mixtures. These blends were then incubated with 5 μg/mL Proteinase K, an enzyme known for its broad-spectrum activity and expected to cleave after the I, A, L, and E residues of these peptides.[40] Immediately after adding Proteinase K, as well as after 1, 3, 6, 12, and 24 h incubations, we used high performance liquid chromatography (HPLC) to monitor the degradation of the coiled coils.
(§3) We incubated solutions of homochiral (L-K3^11/L-E3^11) or heterochiral (D-K3^11/L-E3^11) hendecad coiled coils with 5 μg/mL Proteinase K as we did for the heptad coiled coils (200 μM each in 1× PBS at pH 7.4).

Proteinase K [2] = assay: in vitro; details: isolated enzyme proteinase k
Method: as §1, §2, §3

[3] = cited from earlier work
Excerpt: For example, 1:1 heterochir ...

[4] = pH 7.4, percent intact by peak area (Normalized Area)

Proteinase K (Parengyodontium album, UniProt P06873), sequence (P06873 106-384): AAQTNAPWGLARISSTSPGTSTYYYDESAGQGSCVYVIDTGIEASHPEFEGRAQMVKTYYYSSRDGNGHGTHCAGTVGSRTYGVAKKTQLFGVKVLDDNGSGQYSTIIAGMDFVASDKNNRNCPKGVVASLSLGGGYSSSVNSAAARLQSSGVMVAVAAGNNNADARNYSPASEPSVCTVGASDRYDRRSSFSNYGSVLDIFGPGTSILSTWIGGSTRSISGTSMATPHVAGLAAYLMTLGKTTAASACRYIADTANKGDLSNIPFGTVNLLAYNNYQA

For `CC[C@@H](C)[C@@H](NC(=O)[C@H](N)CCCCN)C(=O)N[C@H](C)C(=O)N[C@H](C)C(=O)N[C@H](CC(C)C)C(=O)N[C@H](CCCCN)C(=O)N[C@H](CCC(=O)O)C(=O)N[C@H](CCCCN)C(=O)N[C@@H](C(=O)N[C@H](C)C(=O)N[C@H](C)C(=O)N[C@H](CCCCN)C(=O)N[C@@H](C(=O)N[C@H](C)C(=O)N[C@H](C)C(=O)N[C@H](CC(C)C)C(=O)N[C@H](CCCCN)C(=O)N[C@H](CCC(=O)O)C(=O)N[C@H](CCCCN)C(=O)N[C@@H](C(=O)N[C@H](C)C(=O)N[C@H](C)C(=O)N[C@H](CCCCN)C(=O)N[C@@H](C(=O)N[C@H](C)C(=O)N[C@H](C)C(=O)N[C@H](CC(C)C)C(=O)N[C@H](CCCCN)C(=O)N[C@H](CCC(=O)O)C(=O)N[C@H](CCCCN)C(=O)N[C@@H](C(=O)N[C@H](C)C(=O)N[C@H](C)C(N)=O)[C@H](C)CC)[C@H](C)CC)[C@H](C)CC)[C@H](C)CC)[C@H](C)CC` [D-K3^11] (H-[dK][dI][dA][dA][dL][dK][dE][dK][dI][dA][dA][dK][dI][dA][dA][dL][dK][dE][dK][dI][dA][dA][dK][dI][dA][dA][dL][dK][dE][dK][dI][dA][dA]-NH2), the “stability in the heterochiral complex (in words)” value (Proteinase K [1]; heterochiral blend D-K3^11:L-E3^11, 1× PBS pH 7.4, HPLC, 30 h incubation) was “remains largely stable”.
For `CC[C@@H](C)[C@@H](NC(=O)[C@H](N)CCCCN)C(=O)N[C@H](C)C(=O)N[C@H](C)C(=O)N[C@H](CC(C)C)C(=O)N[C@H](CCCCN)C(=O)N[C@H](CCC(=O)O)C(=O)N[C@H](CCCCN)C(=O)N[C@@H](C(=O)N[C@H](C)C(=O)N[C@H](C)C(=O)N[C@H](CC(C)C)C(=O)N[C@H](CCCCN)C(=O)N[C@H](CCC(=O)O)C(=O)N[C@H](CCCCN)C(=O)N[C@@H](C(=O)N[C@H](C)C(=O)N[C@H](C)C(=O)N[C@H](CC(C)C)C(=O)N[C@H](CCCCN)C(=O)N[C@H](CCC(=O)O)C(=O)N[C@H](CCCCN)C(=O)N[C@@H](C(=O)N[C@H](C)C(=O)N[C@H](C)C(=O)N[C@H](CC(C)C)C(=O)N[C@H](CCCCN)C(=O)N[C@H](CCC(=O)O)C(N)=O)[C@H](C)CC)[C@H](C)CC)[C@H](C)CC` [D-K4^7] (H-[dK][dI][dA][dA][dL][dK][dE][dK][dI][dA][dA][dL][dK][dE][dK][dI][dA][dA][dL][dK][dE][dK][dI][dA][dA][dL][dK][dE]-NH2), the remaining at 1 h, 100 μM (Proteinase K [2]; [4]) was 97%, the remaining at 3 h, 100 μM (Proteinase K [2]; [4]) was 97% and the “degradation in the heterochiral blend (in words)” value (Proteinase K [1]; heterochiral blend D-K4^7:L-E4^7, 1× PBS pH 7.4, HPLC, up to 24 h) was “little to no degradation”.
`CC[C@H](C)[C@H](NC(=O)[C@H](CCC(=O)O)NC(=O)[C@H](C)NC(=O)[C@H](C)NC(=O)[C@@H](NC(=O)[C@H](CCC(=O)O)NC(=O)[C@H](CCCCN)NC(=O)[C@H](CCC(=O)O)NC(=O)[C@H](CC(C)C)NC(=O)[C@H](C)NC(=O)[C@H](C)NC(=O)[C@@H](NC(=O)[C@H](CCC(=O)O)NC(=O)[C@H](C)NC(=O)[C@H](C)NC(=O)[C@@H](NC(=O)[C@H](CCC(=O)O)NC(=O)[C@H](CCCCN)NC(=O)[C@H](CCC(=O)O)NC(=O)[C@H](CC(C)C)NC(=O)[C@H](C)NC(=O)[C@H](C)NC(=O)[C@@H](NC(=O)[C@@H](N)CCC(=O)O)[C@@H](C)CC)[C@@H](C)CC)[C@@H](C)CC)[C@@H](C)CC)C(=O)N[C@@H](C)C(=O)N[C@@H](C)C(=O)N[C@@H](CC(C)C)C(=O)N[C@@H](CCC(=O)O)C(=O)N[C@@H](CCCCN)C(=O)N[C@@H](CCC(=O)O)C(=O)N[C@H](C(=O)N[C@@H](C)C(=O)N[C@@H](C)C(N)=O)[C@@H](C)CC` [L-E3^11] (H-EIAALEKEIAAEIAALEKEIAAEIAALEKEIAA-NH2) gave a remaining at 3 h, 100 μM (Proteinase K [2]; [4]) of 7%, a remaining at 6 h, 100 μM (Proteinase K [2]; [4]) of 0% and a remaining at 12 h, 100 μM (Proteinase K [2]; [4]) of 0%. It also gave a remaining at 168 h, 100 μM (Proteinase K [2]; pH 7.4, percent of the peptide remaining) of 23%.
For `CC[C@H](C)[C@H](NC(=O)[C@H](CCC(=O)O)NC(=O)[C@H](CCCCN)NC(=O)[C@H](CCC(=O)O)NC(=O)[C@H](CC(C)C)NC(=O)[C@H](C)NC(=O)[C@H](C)NC(=O)[C@@H](NC(=O)[C@H](CCC(=O)O)NC(=O)[C@H](CCCCN)NC(=O)[C@H](CCC(=O)O)NC(=O)[C@H](CC(C)C)NC(=O)[C@H](C)NC(=O)[C@H](C)NC(=O)[C@@H](NC(=O)[C@H](CCC(=O)O)NC(=O)[C@H](CCCCN)NC(=O)[C@H](CCC(=O)O)NC(=O)[C@H](CC(C)C)NC(=O)[C@H](C)NC(=O)[C@H](C)NC(=O)[C@@H](NC(=O)[C@@H](N)CCC(=O)O)[C@@H](C)CC)[C@@H](C)CC)[C@@H](C)CC)C(=O)N[C@@H](C)C(=O)N[C@@H](C)C(=O)N[C@@H](CC(C)C)C(=O)N[C@@H](CCC(=O)O)C(=O)N[C@@H](CCCCN)C(N)=O` [L-E4^7] (H-EIAALEKEIAALEKEIAALEKEIAALEK-NH2), the remaining at 3 h, 100 μM (Proteinase K [2]; pH 7.4) was 71%, the remaining at 6 h, 100 μM (Proteinase K [2]; pH 7.4) was 12% and the remaining at 12 h, 100 μM (Proteinase K [2]; pH 7.4) was 1%. The remaining at 24 h, 100 μM (Proteinase K [2]; pH 7.4) was 0% and the “time within which the intact peak disappears completely” value (Proteinase K [1]; heterochiral blend D-K4^7:L-E4^7, 1× PBS pH 7.4, HPLC peak at 6.9 min) was at most 12 h.
Work on `CC[C@H](C)[C@H](NC(=O)[C@H](CCCCN)NC(=O)[C@H](C)NC(=O)[C@H](C)NC(=O)[C@@H](NC(=O)[C@H](CCCCN)NC(=O)[C@H](CCC(=O)O)NC(=O)[C@H](CCCCN)NC(=O)[C@H](CC(C)C)NC(=O)[C@H](C)NC(=O)[C@H](C)NC(=O)[C@@H](NC(=O)[C@H](CCCCN)NC(=O)[C@H](C)NC(=O)[C@H](C)NC(=O)[C@@H](NC(=O)[C@H](CCCCN)NC(=O)[C@H](CCC(=O)O)NC(=O)[C@H](CCCCN)NC(=O)[C@H](CC(C)C)NC(=O)[C@H](C)NC(=O)[C@H](C)NC(=O)[C@@H](NC(=O)[C@@H](N)CCCCN)[C@@H](C)CC)[C@@H](C)CC)[C@@H](C)CC)[C@@H](C)CC)C(=O)N[C@@H](C)C(=O)N[C@@H](C)C(=O)N[C@@H](CC(C)C)C(=O)N[C@@H](CCCCN)C(=O)N[C@@H](CCC(=O)O)C(=O)N[C@@H](CCCCN)C(=O)N[C@H](C(=O)N[C@@H](C)C(=O)N[C@@H](C)C(N)=O)[C@@H](C)CC` [L-K3^11] (H-KIAALKEKIAAKIAALKEKIAAKIAALKEKIAA-NH2) yielded a remaining at 1 h, 100 μM (Proteinase K [2]; pH 7.4) of 77%, a remaining at 3 h, 100 μM (Proteinase K [2]; pH 7.4) of 11% and a remaining at 6 h, 100 μM (Proteinase K [2]; pH 7.4) of 0%. The remaining at 12 h, 100 μM (Proteinase K [2]; pH 7.4) was 0%, the remaining at 30 h, 100 μM (Proteinase K [2]; pH 7.4) was 0% and the “time to complete degradation” value (Proteinase K [1]; homochiral blend L-K3^11:L-E3^11, 1× PBS pH 7.4, HPLC) was “under 6 h”.
Work on `CC[C@H](C)[C@H](NC(=O)[C@H](CCCCN)NC(=O)[C@H](CCC(=O)O)NC(=O)[C@H](CCCCN)NC(=O)[C@H](CC(C)C)NC(=O)[C@H](C)NC(=O)[C@H](C)NC(=O)[C@@H](NC(=O)[C@H](CCCCN)NC(=O)[C@H](CCC(=O)O)NC(=O)[C@H](CCCCN)NC(=O)[C@H](CC(C)C)NC(=O)[C@H](C)NC(=O)[C@H](C)NC(=O)[C@@H](NC(=O)[C@H](CCCCN)NC(=O)[C@H](CCC(=O)O)NC(=O)[C@H](CCCCN)NC(=O)[C@H](CC(C)C)NC(=O)[C@H](C)NC(=O)[C@H](C)NC(=O)[C@@H](NC(=O)[C@@H](N)CCCCN)[C@@H](C)CC)[C@@H](C)CC)[C@@H](C)CC)C(=O)N[C@@H](C)C(=O)N[C@@H](C)C(=O)N[C@@H](CC(C)C)C(=O)N[C@@H](CCCCN)C(=O)N[C@@H](CCC(=O)O)C(N)=O` [L-K4^7] (H-KIAALKEKIAALKEKIAALKEKIAALKE-NH2) yielded a remaining at 3 h, 100 μM (Proteinase K [2]; [4]) of 74% and a remaining at 24 h, 100 μM (Proteinase K [2]; [4]) of 0%.
In the case of (PPG)10, the “solubility of heterochiral mixtures” value ([3]; heterochiral mixtures of triple helices) is given as “precipitate” and the “solubility of homochiral triple helices” value ([3]; homochiral triple helices) is given as “soluble”.
